Usually EC50 stands for the midpoint of the concentration-response curve.

This passage reports EC50 results from BindingDB's records for doi:10.1016/j.bmc.2016.12.017 (Sunshine Lake Pharma, 2017).

The experiment can be described thus: Inhibition of hepatitis B virus capsid assembly infected in human HepG2.215 cells assessed as reduction in viral DNA replication measured on day 7 by real time PCR analysis. For orientation: In qPCR the cycle at which signal appears reflects the starting amount.
For `CCCOCC1=C(C(=O)OCC)C(c2ccc(F)cc2Cl)N=C(c2nccs2)N1` (configuration not stated), the EC50 was 1200 nM.

As to `Cc1cn([C@@H]2C[C@@H](O)[C@H](CO)O2)c(=O)[nH]c1=O` [CHEBI:63624], the EC50 came to 819 nM. For `CCOC(=O)C1=C(CN2CCOCC2)NC(c2nccs2)=NC1c1ccccc1F` (configuration not stated) the value was 74 nM; for `CCOC(=O)C1=C(CNCCO)NC(c2nccs2)=NC1c1ccc(F)cc1Cl` (configuration not stated), 900 nM.

For the compound `CCOC(=O)C1=C(CN2CCS(=O)(=O)CC2)NC(c2nccs2)=NC1c1ccc(F)cc1Cl` (configuration not stated), the EC50 came out at 80 nM. To `C=C1[C@H](CO)[C@@H](O)C[C@@H]1n1cnc2c(=O)[nH]c(N)nc21` [CHEBI:473990] belongs 0.24 nM; to `CCOC(=O)C1=C(CN2CCOCC2)NC(c2ncc(F)cc2F)=NC1c1ccc(F)cc1Br` (configuration not stated), 6 nM.

In the case of `CC1=C(C(=O)OC(C)C)C(c2ccc(F)cc2Cl)N=C(c2nccs2)N1` (configuration not stated), the EC50 is more than 16400 nM. Regarding `CCOC(=O)C1=C(CN2CCOCC2)NC(n2nnc(C)n2)=NC1c1ccc(F)cc1Br` (configuration not stated), the EC50 was more than 16400 nM. For `CC1=C(C(=O)O)C(c2ccc(F)cc2Cl)N=C(c2nccs2)N1` (configuration not stated) the value was more than 16400 nM. Consider `CCOC(=O)C1=C(CN2CCOCC2)NC(c2nccs2)=NC1c1ccccc1Br` (configuration not stated), for which the EC50 is 10 nM. To `CCOC(=O)C1=C(CN2CCOCC2)NC(c2nccs2)=NC1c1ccc(F)cc1F` (configuration not stated) belongs 26 nM. For `CCOC(=O)C1=C(CN2CCOCC2)NC(c2ncn(C)n2)=NC1c1ccc(F)cc1Br` (configuration not stated), the EC50 is 4300 nM. To `CCOC(=O)C1=C(CN2CC[S+]([O-])CC2)NC(c2nccs2)=NC1c1ccc(F)cc1Cl` (configuration not stated) belongs 100 nM; to `CCOC(=O)C1=C(COCCOC)NC(c2nccs2)=NC1c1ccc(F)cc1Cl` (configuration not stated), 200 nM. For `CCOC(=O)C1=C(C)NC(c2nccs2)=NC1c1ccc(F)cc1Cl` (configuration not stated) the value was 150 nM. Consider `CCOC(=O)C1=C(CN2CCSCC2)NC(c2nccs2)=NC1c1ccc(F)cc1Cl` (configuration not stated), for which the EC50 is 250 nM. With `CC1=C(C(=O)NN)C(c2ccc(F)cc2Cl)N=C(c2nccs2)N1` (configuration not stated), the EC50 was more than 16400 nM. To `C[C@H](Cn1cnc2c(N)ncnc21)OCP(=O)(O)O` [CHEBI:63625] belongs 242 nM.

With `CCOC(=O)C1=C(CN2CCCCC2)NC(c2nccs2)=NC1c1ccc(F)cc1Cl` (configuration not stated), the EC50 is 3500 nM. As to `CCOC(=O)C1=C(CN2CCOCC2)NC(c2nccs2)=NC1c1ccc(F)cc1-c1ccc(OC)cc1` (configuration not stated), the EC50 was more than 16400 nM. For `CCOC(=O)C1=C(CN2CCOCC2)NC(n2cnnn2)=NC1c1ccc(F)cc1Br` (configuration not stated) the value was more than 16400 nM; for `Nc1ncnc2c1ncn2CCOCP(=O)(O)O` [9-[2-phosphonomethoxyethyl]adenine], 83 nM; for `CCOC(=O)C1=C(COC)NC(c2nccs2)=NC1c1ccc(F)cc1Cl` (configuration not stated), more than 16400 nM. For `CNC(=O)C1=C(C)NC(c2nccs2)=NC1c1ccc(F)cc1Cl` (configuration not stated) the value was more than 16400 nM; for `COC(=O)C1=C(C)NC(c2nccs2)=NC1c1ccc(F)cc1Cl` (configuration not stated), 250 nM.

For the compound `CCOC(=O)C1=C(CN2CCOCC2)N(C)C(c2nccs2)=NC1c1ccc(F)cc1Cl` (configuration not stated), the EC50 is more than 16400 nM. To `CCOC(=O)C1=C(CN2CCOCC2)NC(c2nnc(C)s2)=NC1c1ccc(F)cc1Br` (configuration not stated) belongs more than 16400 nM; to `CC1=C(C(=O)OC(C)(C)C)C(c2ccc(F)cc2Cl)N=C(c2nccs2)N1` (configuration not stated), more than 16400 nM; to `COC(=O)C1=C(C)NC(c2nccs2)=N[C@H]1c1ccc(F)cc1Cl`, 100 nM.

Turning to `CCOCC1=C(C(=O)OCC)C(c2ccc(F)cc2Cl)N=C(c2nccs2)N1` (configuration not stated), the EC50 came to 800 nM. For `CCOC(=O)C1=C(CN2CCOCC2)NC(c2nccs2)=NC1c1ccc(F)cc1-c1ccc(C(F)(F)F)cc1` (configuration not stated) the value was more than 16400 nM. As for `CCOC(=O)C1=C(CN2CCOCC2)NC(c2nccn2C)=NC1c1ccc(F)cc1Br` (configuration not stated), the EC50 was found to be 20 nM. As for `CC1=C(C(N)=O)C(c2ccc(F)cc2Cl)N=C(c2nccs2)N1` (configuration not stated), the EC50 was more than 16400 nM. As for `CCOC(=O)C1=C(CN2CCNCC2)NC(c2nccs2)=NC1c1ccc(F)cc1Cl` (configuration not stated), the EC50 is more than 16400 nM. For `CCOC(=O)C1=C(CO)NC(c2nccs2)=NC1c1ccc(F)cc1Cl` (configuration not stated) the value was more than 16400 nM. On to `CCOC(=O)C1=C(CN)NC(c2nccs2)=NC1c1ccc(F)cc1Cl` (configuration not stated), for which the EC50 was determined as 5100 nM.
